Among the data in patent US8946453B2, “Chemical compounds” (Syngenta Participations AG, priority 2011, dated 2015) are melting point and pest or weed control values, retold here.

Data set [1] has as its system Myzus persicae (Green Peach Aphid). As to the kind of experiment: Activity against Myzus persicae on cabbage plants, feeding/residual contact, spray chamber. As to conditions: in Brassica oleracea, 144 h, read-out: activity against Myzus persicae.
For data set [2] the test system is unchanged. Put plainly: Activity against Myzus persicae, mixed population, feeding/residual contact, preventive (sunflower leaf discs). To be noted: foliar, 144 h, read-out: activity.
Data set [3] has the same test system. As to the kind of experiment: Activity against Myzus persicae, mixed population, systemic/feeding, curative (pea seedling roots in test solution). As to conditions: 144 h, read-out: activity.

As usually defined, the melting point is the temperature, or range, at which the solid turns liquid. In turn, `CCOC(=O)OC1=C(c2cc(C)ccc2C)C(=O)NC1CC1CCS(=O)(=NC(=O)C(F)(F)F)CC1` (single isomer, unassigned) [Compound P1.6, carbonic acid 4-(2,5-dimethyl-phenyl)-5-oxo-2-[1-oxo-1-(2,2,2-trifluoro-acetylimino)-hexahydro-1λ^6-thiopyran-4-ylmethyl]-2,5-dihydro-1H-pyrrol-3-yl ester ethyl ester] showed a melting point of 91 to 93 °C.

In the case of `CCOC(=O)OC1=C(c2cc(C)ccc2C)C(=O)NC1CC1CCS(=O)(=NC(=O)C(F)(F)F)CC1` (single isomer, unassigned) [Compound P1.7, carbonic acid 4-(2,5-dimethyl-phenyl)-5-oxo-2-[1-oxo-1-(2,2,2-trifluoro-acetylimino)-hexahydro-1λ^6-thiopyran-4-ylmethyl]-2,5-dihydro-1H-pyrrol-3-yl ester ethyl ester], the melting point lay within 87 to 89 °C.

As to `CCOC(=O)OC1=C(c2cc(C)ccc2C)C(=O)NC1CC1CCN(OC)CC1` (stereo not drawn) [Compound P1.1, carbonic acid 4-(2,5-dimethyl-phenyl)-2-(1-methoxy-piperidin-4-ylmethyl)-5-oxo-2,5-dihydro-1H-pyrrol-3-yl ester ethyl ester], the pest or weed control at 200 ppm in data set [1] is ≥ 80%. The pest or weed control at 400 ppm in data set [2] was > 80%.

`CCOC(=O)OC1=C(c2cc(C)ccc2C)C(=O)NC1CC1CCSCC1` (stereo not drawn) [Compound P1.2, carbonic acid 4-(2,5-dimethyl-phenyl)-5-oxo-2-(tetrahydro-thiopyran-4-ylmethyl)-2,5-dihydro-1H-pyrrol-3-yl ester ethyl ester]: the melting point was in the range of 75 to 76 °C.

`CCOC(=O)OC1=C(c2cc(C)ccc2C)C(=O)NC1CC1CCS(=O)(=O)CC1` (stereo not drawn) [Compound P1.3] came in with a melting point of 97 to 101 °C.

`CCOC(=O)OC1=C(c2cc(C)ccc2C)C(=O)NC1CC1CC[S+]([O-])CC1` (stereo not drawn) [Compound P1.4, carbonic acid 4-(2,5-dimethyl-phenyl)-5-oxo-2-(1-oxo-hexahydro-1λ^4-thiopyran-4-ylmethyl)-2,5-dihydro-1H-pyrrol-3-yl ester ethyl ester] yielded a melting point of 103 to 106 °C.

`CCOC(=O)OC1=C(c2cc(C)ccc2C)C(=O)NC1CC1CCS(=O)(=NC#N)CC1` (stereo not drawn) [Compound P1.5]: the pest or weed control at 400 ppm in data set [2] is > 80%.

As for `CCOC(=O)OC1=C(c2cc(C)ccc2C)C(=O)NC1CC1CCS(=NC(=O)C(F)(F)F)CC1` (stereo not drawn) [Compound P1.8], the melting point was in the range of 190 to 192 °C.

Take `CCOC(=O)OC1=C(c2cc(C)ccc2C)C(=O)NC1CC1CCS(=NC#N)CC1` (stereo not drawn) [Compound P1.9, carbonic acid 2-(1-cyanoimino-hexahydro-1λ^4-thiopyran-4-ylmethyl)-4-(2,5-dimethyl-phenyl)-5-oxo-2,5-dihydro-1H-pyrrol-3-yl ester ethyl ester]: the melting point was in the range of 103 to 105 °C.

For `CCOC(=O)OC1=C(c2c(C)cc(C)cc2C)C(=O)NC1CC1CCN(OC)CC1` (stereo not drawn) [Compound P1.10], in data set [1], the pest or weed control at 200 ppm was ≥ 80%. Moreover, the pest or weed control at 400 ppm in data set [2] and in data set [3] was > 80% each time.

Consider `CCOC(=O)OC1=C(c2cc(C)ccc2C)C(=O)NC1C1CCN(OC)CC1` (stereo not drawn) [Compound P1.11], for which the pest or weed control at 200 ppm in data set [1] is ≥ 80%. The pest or weed control at 400 ppm in data set [3] is > 80%.

For the compound `CCOC(=O)OC1=C(c2c(C)cc(C)cc2C)C(=O)NC1C1CCN(OC)CC1` (stereo not drawn) [Compound P1.12, carbonic acid ethyl ester 2-(1-methoxy-piperidin-4-yl)-5-oxo-4-(2,4,6-trimethyl-phenyl)-2,5-dihydro-1H-pyrrol-3-yl ester], in data set [1], the pest or weed control at 200 ppm is ≥ 80%. Besides, the pest or weed control at 400 ppm in data set [2] and in data set [3] was > 80% throughout.

As for `CCOC(=O)OC1=C(c2c(C)cc(C)cc2C)C(=O)N(C)C1CC1CCN(OC)CC1` (stereo not drawn) [Compound P1.13], the pest or weed control at 200 ppm in data set [1] was ≥ 80%. Moreover, in data set [2], the pest or weed control at 400 ppm was > 80%.

As to `CCOC(=O)OC1=C(c2c(C)cc(C)cc2C)C(=O)OC1CC1CCN(OC)CC1` (stereo not drawn) [Compound P1.14], in data set [1], the pest or weed control at 200 ppm is ≥ 80%. Further, in data set [3], the pest or weed control at 400 ppm is > 80%.

As to `CCOC(=O)OC1=C(c2c(C)cc(C)cc2C)C(=O)OC1C1CCN(OC)CC1` (stereo not drawn) [Compound P1.15], the pest or weed control at 200 ppm in data set [1] is ≥ 80%. The pest or weed control at 400 ppm in data set [2] and in data set [3] was > 80% each time.

As for `Cc1cc(C)c(C2=C(OC(=O)C(C)(C)C)C(CC3CCOCC3)OC2=O)c(C)c1` (stereo not drawn) [Compound P1.16], the pest or weed control at 400 ppm in data set [2] was > 80%.

For `CCOC(=O)OC1=C(c2c(C)cc(Cl)cc2C)C(=O)NC1C1CCN(OC)CC1` (stereo not drawn) [Compound P1.18], the pest or weed control at 400 ppm in data set [2] is > 80%.

As for `CCOC(=O)OC1=C(c2c(C)cc(Cl)cc2C)C(=O)NC1CC1CCN(OC)CC1` (stereo not drawn) [Compound P1.19], the pest or weed control at 400 ppm in data set [3] is > 80%.

For the compound `Cc1cc(C)c(C2C(=O)NC(CC3CCOCC3)C2=O)c(C)c1` (stereo not drawn) [Compound P2.1], in data set [2], the pest or weed control at 400 ppm is > 80%.

With `CON1CCC(CC2NC(=O)C(c3cc(C)ccc3C)=C2O)CC1` (stereo not drawn) [Compound P2.2, 3-(2,5-dimethyl-phenyl)-4-hydroxy-5-(1-methoxy-piperidin-4-ylmethyl)-1,5-dihydro-pyrrol-2-one], in data set [2], the pest or weed control at 400 ppm is > 80%.

Turning to `Cc1ccc(C)c(C2C(=O)NC(CC3CCOCC3)C2=O)c1` (stereo not drawn) [Compound P2.4], the melting point was in the range of 114 to 116 °C.

Take `Cc1ccc(C)c(C2=C(O)C(CC3CCS(=O)(=O)CC3)NC2=O)c1` (stereo not drawn) [Compound P2.6, 3-(2,5-dimethyl-phenyl)-5-(1,1-dioxo-hexahydro-1λ^6-thiopyran-4-ylmethyl)-4-hydroxy-1,5-dihydro-pyrrol-2-one]: the melting point is 244 to 246 °C.

Take `Cc1ccc(C)c(C2C(=O)NC(CC3CCS(=O)(=NC#N)CC3)C2=O)c1` (stereo not drawn) [Compound P2.9]: the melting point lay in the range of 189 to 191 °C.

`Cc1ccc(C)c(C2C(=O)NC(CC3CCN(C)CC3)C2=O)c1` (stereo not drawn) [Compound P2.10] gave a melting point of 142 to 145 °C.

In the case of `Cc1cc(C)c(C2C(=O)NC(CC3CCN(C)CC3)C2=O)c(C)c1` (stereo not drawn) [Compound P2.11], the melting point is 133 to 136 °C.

Compound `CON1CCC(C2NC(=O)C(c3c(C)cc(C)cc3C)=C2O)CC1` (stereo not drawn) [Compound P2.12, 4-hydroxy-5-(1-methoxy-piperidin-4-yl)-3-(2,4,6-trimethyl-phenyl)-1,5-dihydro-pyrrol-2-one] yielded a melting point of 206 to 209 °C.

With `CON1CCC(CC2NC(=O)C(c3c(C)cc(C)cc3C)C2=O)CC1` (stereo not drawn) [Compound P2.13], the pest or weed control at 200 ppm in data set [1] is ≥ 80%. Also, the pest or weed control at 400 ppm in data set [2] and in data set [3] was > 80% throughout.

`CON1CCC(C2NC(=O)C(c3cc(C)ccc3C)C2=O)CC1` (stereo not drawn) [Compound P2.14]: in data set [1], the pest or weed control at 200 ppm was ≥ 80%.

Regarding `CON1CCC(CC2OC(=O)C(c3c(C)cc(C)cc3C)C2=O)CC1` (stereo not drawn) [Compound P2.16], in data set [1], the pest or weed control at 200 ppm was ≥ 80%. Further, the pest or weed control at 400 ppm in data set [2] and in data set [3] was > 80% each time.

As for `CON1CCC(C2OC(=O)C(c3c(C)cc(C)cc3C)C2=O)CC1` (stereo not drawn) [Compound P2.17], the pest or weed control at 200 ppm in data set [1] is ≥ 80%. For the same compound, the pest or weed control at 400 ppm in data set [2] and in data set [3] was > 80% each time.

For the compound `CON1CCC(C2NC(=O)C(c3c(C)cc(Cl)cc3C)C2=O)CC1` (stereo not drawn) [Compound P2.21], the pest or weed control at 200 ppm in data set [1] was ≥ 80%. In addition, the pest or weed control at 400 ppm in data set [2] and in data set [3] was > 80% throughout.

On to `CON1CCC(CC2NC(=O)C(c3c(C)cc(Cl)cc3C)C2=O)CC1` (stereo not drawn) [Compound P2.22], for which the pest or weed control at 200 ppm in data set [1] is ≥ 80%. Moreover, the pest or weed control at 400 ppm in data set [2] is > 80%.
